Experimental data: patent US10399948B2, “Negative allosteric modulators of metabotropic glutamate receptor 3” (Vanderbilt University, priority 2015, dated 2019)
Where two headings read alike, the source gives them in different places.

Experiments:
Type in all cases: cell-based
rat mGlu3 = rat mGlu3 (Rattus norvegicus (Rat), UniProt P31422); assay: mGlu3 Ca2+ flux assay; conditions: for IC50: NAM, glutamate EC80, >10,000 = decrease without plateau, >30,000 = no measurable activity; for remaining activity at 30 µM: response at 30 μM test compound as percentage of maximal response to glutamate, read-out: rat mGlu3 Glu max (%)
Sequence of rat mGlu3 (P31422 23-879): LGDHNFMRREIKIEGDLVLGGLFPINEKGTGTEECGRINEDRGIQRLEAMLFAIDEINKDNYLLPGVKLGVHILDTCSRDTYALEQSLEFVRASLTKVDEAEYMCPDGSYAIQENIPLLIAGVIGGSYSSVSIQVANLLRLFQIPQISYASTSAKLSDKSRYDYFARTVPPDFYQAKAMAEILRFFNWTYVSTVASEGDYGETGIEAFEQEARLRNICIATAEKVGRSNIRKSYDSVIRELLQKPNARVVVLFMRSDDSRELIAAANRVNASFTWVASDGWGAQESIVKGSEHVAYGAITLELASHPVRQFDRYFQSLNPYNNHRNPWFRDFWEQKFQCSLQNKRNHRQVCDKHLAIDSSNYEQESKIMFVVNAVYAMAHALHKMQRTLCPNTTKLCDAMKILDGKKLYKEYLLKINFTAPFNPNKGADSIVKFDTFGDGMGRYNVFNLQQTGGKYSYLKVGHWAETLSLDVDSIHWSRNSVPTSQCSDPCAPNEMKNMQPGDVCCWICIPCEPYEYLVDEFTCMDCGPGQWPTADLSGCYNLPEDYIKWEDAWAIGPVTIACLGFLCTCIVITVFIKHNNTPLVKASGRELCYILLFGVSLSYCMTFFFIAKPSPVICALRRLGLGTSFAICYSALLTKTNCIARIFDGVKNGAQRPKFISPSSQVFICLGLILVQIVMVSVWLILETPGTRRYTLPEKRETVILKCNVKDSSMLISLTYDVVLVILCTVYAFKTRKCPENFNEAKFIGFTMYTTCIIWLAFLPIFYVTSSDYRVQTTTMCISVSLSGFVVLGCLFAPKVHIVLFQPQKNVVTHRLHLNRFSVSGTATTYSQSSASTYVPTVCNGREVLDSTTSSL
Method: Gα15/TREx cells stably expressing rat mGlu3 were plated in black-walled, clear-bottomed, poly-D-lysine coated 384-well plates in 20 μL of assay medium (DMEM containing 10% dialyzed FBS, 20 mM HEPES, 25 ng/mL tetracycline, 100 units/mL penicillin/streptomycin plus 250 ng/mL Fungizone, and 1 mM sodium pyruvate) at a density of 15K cells/well. The cells were grown overnight at 37° C. in the presence of 5% CO2. […] Dye was removed, 20 μL of assay buffer was added, and the plate was incubated for 10 minutes at room temperature.
(§1) Ca^2+ flux was measured using the Functional Drug Screening System (FDSS7000, Hamamatsu, Japan). After establishment of a fluorescence baseline for about 3 seconds, the compounds of the present invention were added to the cells, and the response in cells was measured. 2.3 minutes later an EC20 concentration of the mGlu3 receptor agonist glutamate was added to the cells, and the response of the cells was measured for 1.9 minutes; an EC80 concentration of agonist was added and readings taken for an additional 1.7 minutes. All test compounds were dissolved and diluted to a concentration of 10 mM in 100% DMSO. Compounds were then serially diluted 1:3 in DMSO into 10 point concentration response curves, transferred to daughter plates, and further diluted into assay buffer to a 2× stock. Calcium fluorescence measures were recorded as fold over basal fluorescence; raw data was then normalized to the maximal response to glutamate.
(§2) The raw data file containing all time points was used as the data source in the analysis template. This was saved by the FDSS as a tab-delimited text file. Data were normalized using a static ratio function (F/F0) for each measurement of the total 360 values per well divided by each well's initial value. Data were then reduced to peak amplitudes (Max−Initial Min) using a time range that starts approximately 3 seconds prior to the glutamate EC80 addition and continues for approximately 90 seconds. This is sufficient time to capture the peak amplitude of the cellular calcium response. Individual amplitudes were expressed as % EMax by multiplying each amplitude by 100 and then dividing the product by the mean of the amplitudes derived from the glutamate ECMax-treated wells. EC50 values for test compounds were generated by fitting the normalized values versus the log of the test compound concentration (in mol/L) using a 4 parameter logistic equation where none of the parameters were fixed. Each of the three values collected at each concentration of test compound were weighted evenly.

rat mGlu2 = rat mGlu2 (Rattus norvegicus (Rat), UniProt P31421); assay: mGlu2 Ca2+ flux assay; conditions: NAM, glutamate EC80; >30,000 = no measurable activity
Sequence of rat mGlu2 (P31421 19-872): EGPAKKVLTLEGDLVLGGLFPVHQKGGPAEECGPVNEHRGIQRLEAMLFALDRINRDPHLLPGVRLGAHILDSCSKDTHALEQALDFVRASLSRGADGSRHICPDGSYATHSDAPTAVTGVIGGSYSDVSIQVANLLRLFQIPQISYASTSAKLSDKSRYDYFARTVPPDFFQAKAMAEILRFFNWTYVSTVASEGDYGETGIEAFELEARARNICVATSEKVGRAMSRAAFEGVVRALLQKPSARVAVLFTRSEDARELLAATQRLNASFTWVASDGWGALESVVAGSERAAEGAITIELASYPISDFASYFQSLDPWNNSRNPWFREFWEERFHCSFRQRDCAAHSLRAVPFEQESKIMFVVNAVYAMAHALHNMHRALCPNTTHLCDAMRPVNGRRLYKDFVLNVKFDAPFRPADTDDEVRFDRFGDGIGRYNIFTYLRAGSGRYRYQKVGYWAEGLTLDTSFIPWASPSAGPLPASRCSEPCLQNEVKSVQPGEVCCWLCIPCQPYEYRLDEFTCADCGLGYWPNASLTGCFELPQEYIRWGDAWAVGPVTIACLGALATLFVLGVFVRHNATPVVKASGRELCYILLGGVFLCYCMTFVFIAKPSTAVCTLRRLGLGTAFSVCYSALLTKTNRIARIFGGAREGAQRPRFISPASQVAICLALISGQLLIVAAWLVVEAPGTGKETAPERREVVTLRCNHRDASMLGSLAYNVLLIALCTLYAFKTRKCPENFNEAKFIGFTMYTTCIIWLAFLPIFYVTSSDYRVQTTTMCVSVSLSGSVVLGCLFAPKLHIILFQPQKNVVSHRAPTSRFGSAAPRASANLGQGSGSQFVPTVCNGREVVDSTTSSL
Method: (§3) Gα15 HEK293 cells stably expressing rat mGlu2 were plated in black-walled, clear-bottomed, poly-D-lysine coated 384-well plates in 20 μL of assay medium (DMEM containing 10% dialyzed FBS, 20 mM HEPES, and 1 mM sodium pyruvate) at a density of 12K cells/well. The cells were grown overnight at 37° C. in the presence of 5% CO2. The next day, medium was removed and the cells incubated with 20 μL of […] Fluo-4, AM prepared as a 2.3 mM stock in DMSO and mixed in a 1:1 ratio with 10% (w/v) pluronic acid F-127 and diluted in assay buffer (Hank's balanced salt solution, 20 mM HEPES, and 2.5 mM probenecid) for 45 minutes at 37° C. Dye was removed, 20 μL of assay buffer was added, and the plate was incubated for 5 minutes at room temperature.
as §1, with “mGlu2” for “mGlu3”
as §2, with “ECMax” for “EMax”, “IC50” for “EC50”

rat mGlu5 = rat mGlu5 (Rattus norvegicus (Rat), UniProt P31424); assay: mGlu5 Ca2+ flux assay; conditions: for activity at 30 µM: read-out: rat mGlu5 Glu max (%)
Sequence of rat mGlu5 (P31424 21-1203): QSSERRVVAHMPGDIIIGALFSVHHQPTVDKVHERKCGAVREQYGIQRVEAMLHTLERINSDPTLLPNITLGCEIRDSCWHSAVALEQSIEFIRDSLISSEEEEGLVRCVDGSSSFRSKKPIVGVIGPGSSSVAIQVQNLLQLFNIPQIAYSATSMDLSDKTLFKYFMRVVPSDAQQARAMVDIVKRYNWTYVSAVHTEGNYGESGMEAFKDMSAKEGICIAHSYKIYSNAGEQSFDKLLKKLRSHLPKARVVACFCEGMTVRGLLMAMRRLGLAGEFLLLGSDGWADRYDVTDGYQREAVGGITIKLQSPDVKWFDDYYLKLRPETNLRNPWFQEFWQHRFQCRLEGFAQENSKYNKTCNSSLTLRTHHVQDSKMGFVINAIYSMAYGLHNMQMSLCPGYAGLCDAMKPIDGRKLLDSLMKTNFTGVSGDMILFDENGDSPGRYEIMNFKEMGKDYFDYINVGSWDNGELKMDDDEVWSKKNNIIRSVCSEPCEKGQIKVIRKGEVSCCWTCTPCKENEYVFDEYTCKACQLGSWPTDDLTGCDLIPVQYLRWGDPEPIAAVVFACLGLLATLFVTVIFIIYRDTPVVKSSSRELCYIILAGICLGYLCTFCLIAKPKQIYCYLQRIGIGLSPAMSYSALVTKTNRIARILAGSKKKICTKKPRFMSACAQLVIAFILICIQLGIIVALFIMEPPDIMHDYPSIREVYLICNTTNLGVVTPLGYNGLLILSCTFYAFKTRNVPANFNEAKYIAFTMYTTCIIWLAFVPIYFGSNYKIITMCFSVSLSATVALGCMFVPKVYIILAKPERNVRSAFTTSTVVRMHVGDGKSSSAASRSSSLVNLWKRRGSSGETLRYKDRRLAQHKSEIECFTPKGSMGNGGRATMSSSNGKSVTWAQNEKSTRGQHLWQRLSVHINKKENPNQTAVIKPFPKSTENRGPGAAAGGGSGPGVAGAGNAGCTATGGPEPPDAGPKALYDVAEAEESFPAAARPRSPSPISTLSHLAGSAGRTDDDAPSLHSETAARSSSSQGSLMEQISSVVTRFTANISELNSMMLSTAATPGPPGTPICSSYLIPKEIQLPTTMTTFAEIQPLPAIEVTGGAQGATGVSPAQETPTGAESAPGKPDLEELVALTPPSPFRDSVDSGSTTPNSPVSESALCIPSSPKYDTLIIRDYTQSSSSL
Method: as §3, with “HEK 293A cells stably” for “Gα15 HEK293 cells stably”, “expressing rat mGlu5 were plated” for “expressing rat mGlu2 were plated”, “mM HEPES, 100 units/mL penicillin/streptomycin plus 250 ng/mL Fungizone, and 1” for “mM HEPES, and 1”, “density of 20K cells/well. The” for “density of 12K cells/well. The”
as §1, with “mGlu5” for “mGlu3”
as §2, with “EC20/EC80” for “EC80”, “90-120” for “90”

[1] = PAM, response at 30 μM test compound as percentage of maximal response to glutamate
[2] = PAM, glutamate EC20, >10,000 = no plateau, >30,000 = no measurable activity, read-out: rat mGlu5 EC50 or IC50

Structure (SMILES) | IC50 (rat mGlu3) | remaining activity at 30 µM (rat mGlu3) | IC50 (rat mGlu2) | EC50 (rat mGlu5) | activity at 30 µM (rat mGlu5; [1]) | EC50 (rat mGlu5; [2]) | IC50 (rat mGlu5; noted as weak NAM, glutamate EC80, read-out: rat mGlu5 EC50 or IC50) | activity at 30 µM (rat mGlu5; noted as weak NAM, response at 30 μM test compound)
O=c1cc(OCCOc2ccccc2)ccn1-c1ccc(F)cc1 [Compound 18, 1-(4-Fluorophenyl)-4-(2-phenoxyethoxy)pyridin-2(1H)-one] | 725 ± 227 nM | 1.45 ± 0.14% | > 30000 nM | 567 nM | 97.3% |  |  | 
O=c1cc(OCCOc2ccccc2)ccn1-c1cccc(F)c1 [Compound 19, 1-(3-fluorophenyl)-4-(2-phenoxyethoxy)pyridin-2(1H)-one] | 434 nM | 2.01% | > 30000 nM | 1970 nM | 88% |  |  | 
O=c1cc(OCCOc2ccccc2)ccn1-c1ccc(F)c(F)c1 [Compound 20, 1-(3,4-difluorophenyl)-4-(2-phenoxyethoxy)pyridin-2(1H)-one] | 323 nM | 1.63% | > 30000 nM | 344 nM | 91% |  |  | 
N#Cc1cccc(-n2ccc(OCCOc3ccccc3)cc2=O)c1 [Compound 22, 3-(2-oxo-4-(2-phenoxyethoxy)pyridin-1(2H)-yl)benzonitrile] | 559 nM | 1.16% | > 30000 nM |  | 87% | 6020 nM |  | 
N#Cc1cc(F)cc(-n2ccc(OCCOc3ccccc3)cc2=O)c1 [Compound 23, 3-fluoro-5-(2-oxo-4-(2-phenoxyethoxy)pyridin-1(2H)-yl)benzonitrile] | 522 nM | 3.44% | > 30000 nM |  | 26.8% | 1310 nM |  | 
O=c1cc(OCCOc2ccccc2)ncn1-c1ccc(F)cc1 [Compound 28, 3-(4-Fluorophenyl)-6-(2-phenoxyethoxy)pyrimidin-4(3H)-one] | 1270 nM | 10.1% | > 30000 nM |  | 89.8% | 1220 nM |  | 
O=c1cc(OCCOc2ccccc2F)ccn1-c1ccc(F)cc1 [Compound 30, 4-(2-(2-fluorophenoxy)ethoxy)-1-(4-fluorophenyl)pyridin-2(1H)-one] | 897 nM | 2.48% | > 30000 nM |  | 92.8% | 1870 nM |  | 
O=c1cc(OCCOc2cccc(F)c2)ccn1-c1ccc(F)cc1 [Compound 31, 4-(2-(3-fluorophenoxy)ethoxy)-1-(4-fluorophenyl)pyridin-2(1H)-one] | 514 nM | 1.95% | > 30000 nM |  | 93.2% | 1460 nM |  | 
O=c1cc(OCCOc2ccc(F)cc2)ccn1-c1ccc(F)cc1 [Compound 32, 4-(2-(4-fluorophenoxy)ethoxy)-1-(4-fluorophenyl)pyridin-2(1H)-one] | 1050 nM | -0.56% | > 30000 nM |  | 94.1% | 1500 nM |  | 
O=c1cc(OCCOc2cccc(F)c2F)ccn1-c1ccc(F)cc1 [Compound 33, 4-(2-(2,3-difluorophenoxy)ethoxy)-1-(4-fluorophenyl)pyridin-2(1H)-one] | 917 nM | -0.23% | > 30000 nM |  | 94.1% | 6850 nM |  | 
O=c1cc(OCCOc2ccc(Cl)cc2)ccn1-c1ccc(F)cc1 [Compound 39, 4-(2-(4-chlorophenoxy)ethoxy)-1-(4-fluorophenyl)pyridin-2(1H)-one] | 634 nM | 1.56% | > 30000 nM |  | 81.1% | 10000 nM |  | 
N#Cc1cccc(OCCOc2ccn(-c3ccc(F)cc3)c(=O)c2)c1 [Compound 41, 3-(2-((1-(4-fluorophenyl)-2-oxo-1,2-dihydropyridin-4-yl)oxy)ethoxy)benzonitrile] | 715 nM | 0.13% | > 30000 nM |  |  |  | > 10000 nM | 29.1%
O=c1cc(OCCOc2ccc(F)nc2)ccn1-c1ccc(F)cc1 [Compound 45, 1-(4-fluorophenyl)-4-(2-((6-fluoropyridin-3-yl)oxy)ethoxy)pyridin-2(1H)-one] | 701 nM | 0.88% | > 30000 nM |  | 35.5% | > 10000 nM |  | 
O=c1cc(OCCOc2cc(Cl)ccn2)ccn1-c1ccc(F)cc1 [Compound 49, 4-(2-((4-Chloropyridin-2-yl)oxy)ethoxy)-1-(4-fluorophenyl)pyridin-2(1H)-one] | 563 nM | 0.73% | > 30000 nM |  | 82.3% | 8800 nM |  | 
